{
  "source": "paper PMC9297947",
  "about": "(Chembiochem, 2021)",
  "key": {"AurA [1]": {"target": "T1, AurA (Homo sapiens, UniProt O14965)", "T1 construct": "purchased Carna Bioscience", "T1 sequence (O14965 1-403)": "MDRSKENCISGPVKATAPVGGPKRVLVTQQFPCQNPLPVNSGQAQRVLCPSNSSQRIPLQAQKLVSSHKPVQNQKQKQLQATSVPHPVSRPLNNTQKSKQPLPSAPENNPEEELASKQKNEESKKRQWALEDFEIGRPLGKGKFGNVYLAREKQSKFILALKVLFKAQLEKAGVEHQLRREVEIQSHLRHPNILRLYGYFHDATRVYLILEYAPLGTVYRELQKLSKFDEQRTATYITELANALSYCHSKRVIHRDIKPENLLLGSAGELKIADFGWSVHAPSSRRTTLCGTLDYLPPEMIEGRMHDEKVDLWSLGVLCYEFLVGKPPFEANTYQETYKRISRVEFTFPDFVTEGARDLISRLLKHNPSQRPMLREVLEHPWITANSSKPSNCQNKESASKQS", "assay": "Lineweaver-Burk inhibition mechanism (IMAP TR-FRET, various ATP), AurA", "format": "biochemical", "conditions": "Lineweaver-Burk plot, various concentrations of ATP", "source_text": "Inhibition Mechanism of Peptide inhibitor Bip-3 for Aurora-A\nLineweaver-Burk plots were generated by plotting the TR-FRET ratio values, which are proportional to reaction velocity in these conditions [8,9], as a function of the velocity versus ATP concentration ratio (v/[ATP]) at different concentrations of the peptide [19,20]."}, "AurA [2]": {"target": "T1, AurA", "assay": "IMAP TR-FRET kinase inhibition assay, AurA", "format": "biochemical", "conditions": "for IC50: FAM-Kemptide 1 µM, ATP 5 µM (Table S2; Figure 3 legend prints mM), TBS reaction buffer"}, "[3]": {"tested_on": "phage infectivity of the host TG1 E. coli cells", "assay": "Phage infectivity after chemical modification", "conditions": "higher concentrations within 0.5–500 μM in PBS, room temperature, 2 h; P8-2KA phage clone", "procedure": "Mild conditions are required for modification to minimize damage to phage clones so that they remain infectious to the host Escherichia coli cells.[[8a]] […] Phage clones (10^11 cfu) of P8‐2KA were treated with 200 μL of serially diluted maleimide‐PEG2‐biotin (0.5–500 μM) in PBS at room temperature for 2 h (Supporting Figure S3).\n2. Chemical Modification of HLH peptide on Phage\nAll of the experiments were performed as described. 200 µL of phage (1012 cfu) was dissolved in PBS (pH 7.0), and 1 µL of 1 mM Maleimide-PEG2-biotin (EZ-Link® Maleimide-PEG2-Biotin, Thermo Scientific) was added and incubated for 2 hr at room temperature. To eliminate the residual reagents in phage solution, the treated solution was purified by ultrafiltration at 14,000 g for 20 min at 4 C by using Amicon® Ultra 0.5 mL Ultracel® 10K (Millipore). After discarding the flow-through, 200 µL of chilled PBST was added, and centrifugated as the same above. 100 µL of the chemically modified phage was added to Streptavidin High Capacity Coated Plate (SIGMA). Detection of phages was performed as described above by using Anti-M13 antibody conjugated with HRP.\n3. The Infectivity of phages after Chemical Modification\nAll of the experiments were performed as described. […] Then the E. coli cells were inoculated onto LB/Agar containing 20 µg/mL chloramphenicol over night at 37°C, and colonies were counted. […]"}, "BSA": {"tested_on": "BSA", "assay": "Phage ELISA, BSA", "format": "binding", "conditions": "phage clone displaying P8-2KA, 10^10 cfu; HRP anti-M13, OD490", "procedure": "(§1) All of the experiments were performed as described . In this study, the insert fragment encoding of helix-loop- helix (HLH) peptide P8-2KA and phage clone displaying no peptide were prepared. With regard to clone P8-2KA, the insert fragment was initially prepared by overlap extension PCR using P8-2KA 1 fwd and P8-2KA 1 rev. After purification of the fragment, restriction site SfiI and E-tag epitope were introduced by the following PCR using Sfi- YT1- CD 2 fwd and Etag- linker 2 rev, and the product was purified. The fragment was fused with the pIII gene amplified by the two primers prepcr and Sfi2fo with the template fdg3p0ss21, and a fragment encoding P8- 2KA- fused pIII was prepared as described. After digestion of the fragment by SfiI and the succeeding purification, the fragment was ligated with fdg3p0ss21-stop which was digested with the same restriction enzyme. As a negative control, we also prepared a clone displaying no HLH peptide on phage. To prepare the phage clone, only linker primer was used in the PCR together with Sfi2fo and the pIII gene amplified from the template fdg3p0ss21 as described above. […]\n(§2) […] After was hing the wells with PBST 10 times, 100 µL of HRP Anti-M13 antibody conjugated (1:4000) was added, and the OD490 values were measured after adding o-phenylene diamine ([…] OPD, SIGMA) and adding 50 µL of"}, "G‐CSF‐R [4]": {"target": "G‐CSF‐R", "conditions": "ref [2e] El-Haggar et al., Bioorg. Med. Chem. Lett. 2010; cited from earlier work", "text": "Mild conditions are required for modification to minimize damage to phage clones so that they remain infectious to the host Escherichia coli cells.[[8a]]"}, "G‐CSF‐R [5]": {"tested_on": "G‐CSF‐R", "assay": "Phage ELISA, G-CSF-R", "format": "binding", "conditions": "phage clone displaying P8-2KA, 10^10 cfu; HRP anti-M13, OD490", "procedure": "as §1, §2"}, "anti‐E‐tag antibody": {"tested_on": "anti‐E‐tag antibody", "assay": "Phage ELISA, anti-E-tag antibody", "format": "binding", "conditions": "phage clone displaying P8-2KA, 10^10 cfu; HRP anti-M13, OD490", "procedure": "as §1, §2"}, "KDR (VEGF receptor)": {"tested_on": "KDR (VEGF receptor)", "assay": "Phage ELISA, KDR", "format": "binding", "conditions": "phage clone displaying P8-2KA, 10^10 cfu; HRP anti-M13, OD490", "procedure": "as §1, §2"}, "[6]": {"tested_on": "AurA, AurB, AurC, PAK4, Erk2, PKACα, and Src", "assay": "IMAP TR-FRET kinase selectivity panel", "format": "biochemical", "conditions": "5 μM Bip-3-Adc vs AurA", "procedure": "Figure 3 Inhibitory activities of the selected peptide Bip‐3 and the adenosine‐tethering peptide Bip‐3‐Adc for AurA. (a) The structure of synthesized Bip‐3‐Adc, Bip‐3, and the original HLH peptide YT1. (b) The CD spectra of 20 μM Bip‐3 and YT1 measured in TBS at 20 °C. (c) The binding activity of Bip‐3 to immobilized AurA as determined by SPR experiments (TBS, 0.005 % P‐20, 25 °C). (d) Dose‐dependent inhibitory activities of Bip‐3 and Bip‐3‐Adc for AurA measured using an IMAP® TR‐FRET assay. Inhibition of AurA was determined at 100 ng/mL AurA, 1 mM 5FAM‐Kemptide, 5 mM ATP, in TBS reaction buffer. (e) Inhibitory activities of 5 μM Bip‐3‐Adc for AurA, AurB, AurC, PAK4, Erk2, PKACα, and Src, determined using the IMAP® TR‐FRET assay.\nCD spectra were recorded in TBS at overall peptide concentration of 20 μM on a J-820 spectrometer at 20°C (PTC-423L thermostat, Jasco). The peptide concentrations were determined by measuring absorbance of aromatic residues of peptide dissolved in 6 M Gdn•HCl at UV 280 nm[14].\n9. Surface Plasmon Resonance […]\ndenaturation of AurA, measurements were performed without regeneration of the sensor chip surface at each cycle, and any cycles were started after complete dissociation of analytes from the sensor chip. […] The concentration of adenosine-labeled peptide was determined by using the molar extinction coefficient of adenosine, and aromatic residues at UV 260 […]"}, "Circular dichroism": {"assay": "Circular dichroism", "format": "physicochemical", "conditions": "CD, 20 μM peptide in TBS, 20 °C; compared with YT1"}, "Aurora kinase A (AurA)": {"target": "T2, Aurora kinase A (AurA) (Homo sapiens, UniProt O14965)", "T2 chain": "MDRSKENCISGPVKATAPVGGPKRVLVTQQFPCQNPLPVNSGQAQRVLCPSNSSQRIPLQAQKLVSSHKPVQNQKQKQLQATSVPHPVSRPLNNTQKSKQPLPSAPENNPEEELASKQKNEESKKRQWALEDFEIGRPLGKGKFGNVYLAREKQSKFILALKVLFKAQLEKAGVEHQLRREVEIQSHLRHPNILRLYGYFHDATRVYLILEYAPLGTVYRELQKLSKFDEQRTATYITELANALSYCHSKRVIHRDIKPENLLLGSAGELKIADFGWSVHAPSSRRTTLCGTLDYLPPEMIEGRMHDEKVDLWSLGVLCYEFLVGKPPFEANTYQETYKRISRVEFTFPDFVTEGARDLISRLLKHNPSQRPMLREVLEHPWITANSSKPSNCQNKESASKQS", "assay": "SPR"}, "[7]": {"conditions": "100 ng/mL AurA, 1 hr, room temperature"}},
  "note": "* marks the point of attachment. X1 = Nc1ncnc2c1ncn2[C@@H]1O[C@H](C(=O)NCCNC(=O)CCN2C(=O)CC(*)C2=O)[C@@H](O)[C@H]1O",
  "data": [
    {"molecule": "Nc1ncnc2c1ncn2[C@@H]1O[C@H](CO)[C@@H](O)[C@H]1O", "note": "[adenosine]", "values": [
      {"measurement": "mode of inhibition with respect to ATP", "setting": "AurA [1]", "result": "competitive inhibition for ATP"},
      {"measurement": "IC50", "setting": "AurA [2]; [7]", "result": 0.474, "unit": "mM"}
    ]},
    {"molecule": "O=C(CCCC[C@@H]1SC[C@@H]2NC(=O)N[C@@H]21)NCCOCCOCCNC(=O)CCN1C(=O)C=CC1=O", "note": "[maleimide‐PEG2‐biotin]", "values": [
      {"measurement": "phage infectivity of TG1 E. coli cells", "setting": "[3]", "result": "small loss of phage infectivity"}
    ]},
    {"molecule": "AELAALEAELAALE‐G7‐KLAALKAKLAALKAY [YT1]", "values": [
      {"measurement": "inhibitory activity for AurA", "setting": "AurA [2]; [7]", "result": "no inhibitory activity"}
    ]},
    {"molecule": "CDGGSGGGS‐AELAALEAELAALE‐G7‐KLAMLKLKLAELKRY [P8‐2KA]", "values": [
      {"measurement": "binding to BSA", "setting": "BSA", "result": "no binding was observed"},
      {"measurement": "Kd", "setting": "G‐CSF‐R [4]", "result": 0.214, "unit": "µM"},
      {"measurement": "binding to G-CSF-R", "setting": "G‐CSF‐R [5]", "result": "selective binding"},
      {"measurement": "binding to anti-E-tag antibody", "setting": "anti‐E‐tag antibody", "result": "bound to anti‐E‐tag antibody"},
      {"measurement": "binding to KDR", "setting": "KDR (VEGF receptor)", "result": "no binding was observed"}
    ]},
    {"molecule": "H-C(X1)DGGSGGGSAELAALEAELAALEGGGGGGGKLEYLKWKLWPLKGW-NH2 [Bip‐3‐Adc]", "values": [
      {"measurement": "kinase selectivity", "setting": "[6]", "result": "highest inhibitory activity and remarkable selectivity for AurA"},
      {"measurement": "mode of inhibition with respect to ATP", "setting": "AurA [1]", "result": "uncompetitive inhibition"},
      {"measurement": "fold difference in IC50 (inhibition of AurA) vs Bip-3", "setting": "AurA [2]; Bip-3-Adc vs Bip-3 (IC50 103 μM)", "result": 13, "unit": "fold"},
      {"measurement": "fold difference in IC50 (inhibition of AurA) vs adenosine", "setting": "AurA [2]; Bip-3-Adc vs adenosine (IC50 474 μM)", "result": 62, "unit": "fold"}
    ]},
    {"molecule": "H-CDGGSGGGSAELAALEAELAALEGGGGGGGKLEYLKWKLWPLKGW-NH2 [Bip‐3]", "values": [
      {"measurement": "α-helical content", "setting": "Circular dichroism", "result": "high α‐helical content comparable with that of the original peptide YT1"},
      {"measurement": "mode of inhibition with respect to ATP", "setting": "AurA [1]", "result": "mixed inhibition"},
      {"measurement": "IC50", "setting": "AurA [2]; [7]", "result": 0.103, "unit": "mM"}
    ]},
    {"molecule": "CDGGSGGGSAELAALEAELAALEGGGGGGGKLEYLKWKLWPLKGW", "note": "[Bip-3]", "values": [
      {"measurement": "Kd", "setting": "Aurora kinase A (AurA)", "result": 13.7, "unit": "µM"}
    ]}
  ]
}
